For 65 compounds, IC50 and Ki results are on record in ChEMBL document CHEMBL1124610, “Tyrphostins I: synthesis and biological activity of protein tyrosine kinase inhibitors” (J Med Chem, 1989).

In the first experiment the target is T1, Epidermal growth factor receptor (Homo sapiens, UniProt P00533). The experiment in a line: (§1) Inhibitory concentration of EGF dependent autophosphorylation of epidermal growth factor receptor kinase.
T1 sequence (P00533 whole entry): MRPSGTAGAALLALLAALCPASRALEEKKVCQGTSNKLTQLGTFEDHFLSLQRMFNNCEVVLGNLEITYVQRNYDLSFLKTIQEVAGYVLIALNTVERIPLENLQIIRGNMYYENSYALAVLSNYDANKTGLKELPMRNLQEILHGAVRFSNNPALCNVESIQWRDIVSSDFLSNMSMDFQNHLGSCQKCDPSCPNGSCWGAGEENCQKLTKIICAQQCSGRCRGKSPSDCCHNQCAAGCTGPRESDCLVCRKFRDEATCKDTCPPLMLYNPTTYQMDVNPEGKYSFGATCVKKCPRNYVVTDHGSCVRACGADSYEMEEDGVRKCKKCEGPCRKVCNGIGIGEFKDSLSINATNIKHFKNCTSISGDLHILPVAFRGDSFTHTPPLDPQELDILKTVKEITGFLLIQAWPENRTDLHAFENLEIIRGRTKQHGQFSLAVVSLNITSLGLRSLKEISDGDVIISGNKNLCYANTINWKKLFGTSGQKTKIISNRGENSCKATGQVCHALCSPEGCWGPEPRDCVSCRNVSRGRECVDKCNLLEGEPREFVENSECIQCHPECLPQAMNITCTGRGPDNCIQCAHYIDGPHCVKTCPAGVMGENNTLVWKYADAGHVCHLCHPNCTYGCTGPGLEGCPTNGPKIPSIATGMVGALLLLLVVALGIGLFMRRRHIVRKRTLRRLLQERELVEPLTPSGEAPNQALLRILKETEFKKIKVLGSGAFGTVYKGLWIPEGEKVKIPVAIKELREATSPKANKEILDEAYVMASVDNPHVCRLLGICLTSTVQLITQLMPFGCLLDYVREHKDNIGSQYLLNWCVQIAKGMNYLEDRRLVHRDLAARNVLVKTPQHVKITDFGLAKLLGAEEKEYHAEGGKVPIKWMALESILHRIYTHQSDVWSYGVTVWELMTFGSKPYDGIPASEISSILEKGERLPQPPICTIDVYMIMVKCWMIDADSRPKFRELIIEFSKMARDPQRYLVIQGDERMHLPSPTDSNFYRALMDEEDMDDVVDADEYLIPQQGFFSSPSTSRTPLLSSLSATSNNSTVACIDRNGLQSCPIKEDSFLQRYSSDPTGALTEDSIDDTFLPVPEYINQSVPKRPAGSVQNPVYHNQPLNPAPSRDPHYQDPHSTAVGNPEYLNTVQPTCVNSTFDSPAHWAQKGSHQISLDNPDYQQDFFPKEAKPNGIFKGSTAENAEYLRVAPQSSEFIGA
`COc1cc(/C=C(\C#N)C(=O)O)ccc1O` showed an IC50 of 800 µM. The same measure, in the same setting: the same measure for `N#C/C(=C\c1ccc(O)c(O)c1)C(=O)O`: 70 µM.

The compound `COc1cc(/C=C(\C#N)C(=O)O)cc(OC)c1O` yielded an IC50 of 700 µM.

`N#C/C(=C\c1ccc(C=O)cc1)C(=O)O` registered an IC50 of 140 µM.

For the compound `Cc1ccc(/C=C(\C#N)C(=O)O)cc1`, the IC50 is 1350 µM. The same measure, in the same setting: the same measure for `CN(C)c1ccc(/C=C(\C#N)C(=O)O)cc1`: 1400 µM; for `COc1ccc(/C=C(\C#N)C(=O)O)cc1`: 2500 µM.

Regarding `N#C/C(=C\c1ccccc1)C(=O)O`, the 50% inhibitory concentration (IC50) was over 2500 µM. Same read-out and setting: for `N#C/C(=C\c1ccc(F)cc1)C(=O)O` the value was 2500 µM. `N#C/C(=C\c1ccc(O)cc1)C(=O)O` [alpha-CYANO-4-HYDROXYCINNAMIC ACID]: the IC50 turned out to be 308 µM.

The next experiment has as its target T1, Epidermal growth factor receptor. The experiment is described as §1.
With `N#C/C(=C\c1ccc(O)c(O)c1)C(N)=O`, the IC50 came to 10 µM. This counts as double-digit micromolar.

Take `N#CC(C#N)=Cc1ccc(O)cc1`: the IC50 was 560 µM. Against the preceding compound, the IC50 is about 56-fold higher. In the case of `CC(=C(C#N)C#N)c1ccc(NC(=O)CCC(=O)O)cc1`, it took 500 µM to reach half-maximal inhibition (IC50). The compound `COc1cc(C=C(C#N)C#N)cc([N+](=O)[O-])c1O` showed an IC50 of 160 µM. Compound `N#CC(C#N)=Cc1ccc(NC(=O)CCC(=O)O)cc1` came in with an IC50 of 640 µM. Compared with the last compound, the IC50 is about 4-fold higher. The same measure, in the same setting: for `COc1cc(/C=C(\C#N)C(=O)O)ccc1O` the value was 800 µM. The same measure, in the same setting: the same measure for `N#C/C(=C\c1ccc(O)cc1)C(N)=O`: 800 µM; for `O=C(O)C(=Cc1ccc(O)cc1)C(=O)O`: 1500 µM.

For the compound `N#CC(C#N)=Cc1ccc(O)c([N+](=O)[O-])c1`, half-maximal inhibition (IC50) required 125 µM.

`N#CC(C#N)=C1C(=O)NC(=O)NC1=O` registered an IC50 of 1400 µM. Compared with the last compound, the IC50 is about 11-fold higher.

The compound `N#CC(C#N)=C(N)/C(C#N)=C/c1ccc(O)c(O)c1` gave an IC50 of 2.5 µM.

`N#CC(C#N)=C(O)c1cc(O)c(O)c(O)c1` returned an IC50 of 13.5 µM. In turn, `N#CC(C#N)=C(N)/C(C#N)=C/c1ccc(O)c([N+](=O)[O-])c1` yielded an IC50 of 60 µM.

The compound `N#C/C(=C\c1ccc([N+](=O)[O-])cc1)C(=O)O` displayed an IC50 of 1300 µM. Same read-out and setting: the same measure for `N#CC(C#N)=Cc1cccc(O)c1`: 375 µM.

Take `N#CC(C#N)=Cc1ccc[nH]1`: half-maximal inhibition (IC50) was put at 260 µM. The compound `N#CC(C#N)=NNc1ccc(O)cc1` gave an IC50 of 225 µM.

Consider `N#CC(C#N)=Cc1ccc(C=O)cc1`, for which the IC50 amounted to 60 µM.

Compound `COc1ccc(C(O)=C(C#N)C#N)cc1` yielded an IC50 of 450 µM. Against the preceding compound, the IC50 is about 7.5-fold higher. On the same count and under the same terms, for `N#CC(C#N)=Cc1ccc(N2CCOCC2)cc1` the value was over 625 µM. Same read-out and setting: the same measure for `COc1cc(C=C(C#N)C#N)cc(OC)c1O`: 850 µM; for `N#CC(C#N)=Cc1cc[n+]([O-])cc1`: 1300 µM; for `N#C/C(=C\c1ccc(O)c(O)c1)C(=O)O`: 70 µM. The same measure, in the same setting: the same measure for `N#C/C=C/c1ccc(O)cc1`: 2400 µM; for `N#CCNC(=O)/C(C#N)=C/c1ccc(O)cc1`: 625 µM; for `N#CC(C#N)Cc1ccc(O)cc1`: 6500 µM. Take `N#CC(C#N)=C(N)/C(C#N)=C/c1ccc(O)cc1`: it took 0.125 µM to reach half-maximal inhibition (IC50). Compound `N#C/C(=C/c1cc(O)ccc1O)C(=O)O` showed a half-inhibitory concentration (IC50) of 75 µM. With `N#CC(C#N)=Cc1cc(O)cc(O)c1`, half-maximal inhibition (IC50) was put at 37 µM.

The compound `COc1cc(/C=C(\C#N)C(=O)O)cc(OC)c1O` had an IC50 of 700 µM. Take `N#CC(C#N)=Cc1ccc(F)cc1`: the IC50 is over 1250 µM. Compound `N#C/C(=C\c1ccc(C=O)cc1)C(=O)O` returned an IC50 of 140 µM.

With `N#CC(C#N)=Cc1cc(O)ccc1[N+](=O)[O-]`, the IC50 is 96 µM.

In turn, `COc1cc(/C(C)=C(\C#N)C(=O)O)ccc1O` gave an IC50 of 1100 µM. The same measure, in the same setting: for `CCCCc1cc(/C=C(\C#N)C(N)=O)cc(CCCC)c1O` the value was 55 µM; for `CC(=C(C#N)C#N)c1ccc(N)cc1`, over 1250 µM. Turning to `COc1cc(C=C(C#N)C#N)cc(Br)c1O`, the IC50 is 153 µM. The compound `N#C/C(=C/c1ccc[nH]1)C(=O)O` returned an IC50 of 1360 µM. On the same count and under the same terms, for `N#CC(C#N)=Cc1ccc([N+](=O)[O-])c(O)c1` the value was 450 µM; for `COc1ccc(/C=C(\C#N)C(=O)O)cc1`, 2500 µM. In turn, `N#C/C(=C\c1ccccc1)C(=O)O` returned an IC50 of over 2500 µM. For `COc1cc(C=C(C#N)C#N)cc(OC)c1`, the concentration for half-maximal inhibition (IC50) was over 1250 µM. The same measure, in the same setting: the same measure for `N#CC(C#N)=Cc1ccncc1`: 250 µM. In the case of `N#CC(C#N)=Cc1ccc(/C=C/C(=O)O)cc1`, inhibition was half-maximal at 450 µM (IC50). Compared with the last compound, the IC50 is about 1.8-fold higher. Still for that read-out and setting: for `N#CC(C#N)=C(N)/C(C#N)=C/c1cc(O)c(O)c(Br)c1` the value was 0.5 µM; for `N#CC(C#N)=CNc1ccc(O)cc1`, 350 µM; for `COc1ccc(NN=C(C#N)C#N)cc1`, 600 µM. The same measure, in the same setting: for `COc1cc(C=C(C#N)C#N)ccc1O` the value was 200 µM.

Regarding `N#CC(C#N)=Cc1ccc(C(=O)O)cc1`, the concentration for half-maximal inhibition (IC50) was determined as 430 µM. Turning to `N#C/C(=C\c1ccc(F)cc1)C(=O)O`, the IC50 was 2500 µM. Against the preceding compound, the IC50 is about 5.8-fold higher. On the same count and under the same terms, for `COc1ccc(C=C(C#N)C#N)cc1O` the value was over 250 µM. The same measure, in the same setting: for `N#CC(C#N)=C(O)c1ccc(O)cc1` the value was 230 µM. On the same count and under the same terms, the same measure for `COc1cc(C=C(C#N)C#N)cc(O)c1O`: 6 µM; for `O=C(O)/C=C/c1ccc(O)c(O)c1` [CAFFEIC ACID]: 1200 µM. As for `O=C(O)/C=C/c1ccc(O)cc1` [COUMARIC ACID], the IC50 turned out to be 3000 µM. Same read-out and setting: the same measure for `O=CN/C=C/c1cc(O)ccc1O` [ERBSTATIN]: 14 µM; for `N[C@@H](Cc1ccc(O)c(O)c1)C(=O)O` [LEVODOPA]: 900 µM; for `N#CC(C#N)=Cc1cc(O)c(O)c(O)c1` [TYRPHOSTIN 25]: 3 µM.

With `N#CC(C#N)=C(N)/C(C#N)=C/c1cc(O)c(O)c(O)c1` [TYRPHOSTIN 51], inhibition was half-maximal at 0.8 µM (IC50). Compared with the last compound, the IC50 is about 3.8-fold lower. The same measure, in the same setting: for `CC(C)(C)c1cc(C=C(C#N)C#N)cc(C(C)(C)C)c1O` [TYRPHOSTIN A9] the value was 460 µM. Same read-out and setting: the same measure for `N#C/C(=C\c1ccc(O)cc1)C(=O)O` [alpha-CYANO-4-HYDROXYCINNAMIC ACID]: 308 µM.

Another experiment has the same target. The experiment in a line: Inhibition of EGF-dependent epidermal growth factor receptor autophosphorylation (inactive).
Take `O=[N+]([O-])c1ccc(O)c(O)c1` [4-Nitrocatechol]: the IC50 result is listed as “Not Active” and the Ki result was “Not Active”. Turning to `O=C(O)c1ccc(O)cc1` [PARABEN], the IC50 result is listed as “Not Active” and the Ki result was “Not Active”.
